Holding throughout (type): in vivo
The nature of test [1]: blood parameters in high-fat diet-fed mice. The note with it: HF diet-fed C57BL/6J mice, Rosi 0.01 g/kg/day oral gavage 4 weeks. The method, then: For part 2, C57BL/6J mice (4 weeks old) were obtained from the National Laboratory Animal Breeding and Research Center. The mice were divided randomly into two groups after 7 days acclimation. […] The compositions of the experimental diets are given in previous studies. After 8 weeks, the high-fat treated mice were randomly subdivided into four groups (n=9) including PTA1 (0.06 g/kg/day), PTA2 (0.12 g/kg/day) or rosiglitazone (Rosi; 1% methylcellulose, 10 mg/kg body weight) (GlaxoSmithKline) or vehicle and treated by oral gavage one time per day from the 9th to 12th weeks, while the mice were still on the high-fat diet, whereas the CON and high-fat control (HF) mice were treated with vehicle only. At the end, food was withheld from the animals (from 10 p.m. to 10 a.m.). The next day, the mice were sacrificed for blood and tissue collection and analysis. Livers, skeletal muscles, and white adipose tissues (WATs) (including epididymal, mesenteric, and retroperitoneal WAT) were weighed and excised, followed by immediate freezing, and kept at −80° C. for target gene analysis. Heparin (30 units/mL) (Sigma) was added to blood samples. Plasma samples were collected within 30 min by centrifugation at 1600 g for 15 min at 4° C. Plasma was obtained for insulin and leptin assay.
Blood samples (0.8 mL) were collected from the retro-orbital sinus of fasted mice, and the glucose level was analyzed by the glucose oxidase method (model 1500; Sidekick Glucose Analyzer; YSI Inc., Yellow Springs, Ohio, USA). Plasma triglycerides (TG), total cholesterol (TC), and free fatty acids (FFA) were measured using commercial assay kits according to the manufacturer's directions (Triglycerides-E test, Cholesterol-E test, and FFA-C test, Wako Pure Chemical, Osaka, Japan). The levels of insulin and leptin in blood were analyzed by ELISA using a commercial assay kit according to the manufacturer's directions (mouse insulin ELISA kit, Sibayagi, Gunma, Japan; and mouse leptin ELISA kit, Morinaga, Yokohama, Japan).

The nature of test [2]: hepatic lipids in high-fat diet-fed mice. Particulars: HF diet-fed C57BL/6J mice, Rosi 0.01 g/kg/day oral gavage 4 weeks; mean ± SE, n=9. The source says:
(§1) For part 2, C57BL/6J mice (4 weeks old) were obtained from the National Laboratory Animal Breeding and Research Center. The mice were divided randomly into two groups after 7 days acclimation. The control (CON) group (n=9) was fed a low-fat diet (diet 12450B, Research Diets, Inc., New Brunswick, N.J., USA), whereas the experimental group was fed a 45% high-fat diet (diet 12451, Research Diets, Inc.) for 12 weeks. The compositions of the experimental diets are given in previous studies. After 8 weeks, the high-fat treated mice were randomly subdivided into four groups (n=9) including PTA1 (0.06 g/kg/day), PTA2 (0.12 g/kg/day) or rosiglitazone (Rosi; 1% methylcellulose, 10 mg/kg body weight) (GlaxoSmithKline) or vehicle and treated by oral gavage one time per day from the 9th to 12th weeks, while the mice were still on the high-fat diet, whereas the CON and high-fat control (HF) mice were treated with vehicle only. At the end, food was withheld from the animals (from 10 p.m. to 10 a.m.). The next day, the mice were sacrificed for blood and tissue collection and analysis. Livers, skeletal muscles, and white adipose tissues (WATs) (including epididymal, mesenteric, and retroperitoneal WAT) were weighed and excised, followed by immediate freezing, and kept at −80° C. for target gene analysis. Heparin (30 units/mL) (Sigma) was added to blood samples. Plasma samples were collected within 30 min by centrifugation at 1600 g for 15 min at 4° C. Plasma was obtained for insulin and leptin assay.
Hepatic lipids were extracted using a previously described protocol. For the hepatic lipid extraction, 0.375 g liver samples were homogenized with 1 mL of distilled water for 5 min. Finally, the dried pellet was resuspended in 0.5 mL of ethanol and analyzed using a triglycerides kit as used for serum lipids.

For test [3], the system named is epididymal WAT and liver tissue. The test is described as follows: histopathology of epididymal WAT and liver tissue. Particulars: HF diet-fed C57BL/6J mice, Rosi 0.01 g/kg/day oral gavage 4 weeks.
Text: as §1
Small pieces of epididymal WAT and liver tissue were fixed with formalin (200 g/kg) neutral buffered solution and embedded in paraffin. Sections (8 μm) were cut and stained with hematoxylin and eosin. For microscopic examination, a microscope (Leica, DM2500) was used, and the images were taken using a Leica Digital camera (DFC-425-C).

SMILES strings stand for the structures.

Regarding `CN(CCOc1ccc(CC2SC(=O)NC2=O)cc1)c1ccccn1` (stereo not drawn) [Rosi, rosiglitazone, reference compound], the blood glucose in test [1] (week 12) amounted to 89.7 mg/dL. In addition, in test [1] (mean ± SE, n=9), the “Blood profiles: FFA (plasma free fatty acid)” value is on record as 1.85 ± 0.28 mequiv/L, the “Blood profiles: Insulin” value was 56.4 ± 13.8 μU/mL, the Blood profiles: Leptin stood at 2.15 ± 0.099 ng/mL and the “Blood profiles: TC (total cholesterol)” value is reported as 140.7 ± 14.1 mg/dL. In addition, in test [2], the “Liver lipids: Total lipid” value worked out at 74.7 ± 5.7 mg/g and the “Liver lipids: Triacylglycerol” value is 43.8 ± 4.7 µmol/g. In addition, the “average area of adipocytes (epididymal WAT)” value in test [3] came to 4574.4±162.7 μm^2. Besides, the “hepatocellular ballooning mean score” value in test [3] (grade 0 none, 1 a few cells, 2 many cells) turned out to be 0.9±0.2.

Source of the values: patent publication US20170105953A1, “METHOD FOR SUPPRESSING DIABETES AND/OR HEPATIC LIPIDS USING TORMENTIC ACID” (priority 2015, published 2017).
